# Values of other authors as cited in patent US20230364004A1, “STABLE COMPOSITIONS CONTAINING A CANNABINOID” (ANGROW COMPANY LIMITED, priority 2022, published 2023).
# Conditions: within 24 hours, simulated physiological condition (PH 7.4 and 37° C.)
compound,measurement,value
"C=C(C)[C@@H]1CCC(C)=C[C@H]1c1c(O)cc(CCCCC)cc1O [CBD, cannabidiol]",CBD degraded,10%
